Data on 3 molecules can be found in patent US20070060512A1, “Dipeptidyl-peptidase protected protein” (priority 2003, published 2007).

For series [1] the following is noted: second N-terminal alanine replaced with serine; cited from earlier work.
The conditions of series [2]: compared to GLP-1; cited from earlier work.
Series [3] deals with Zucker rats. Kind of series: Fasting glucose of Zucker rats without glucose administration. It is filed as in vivo, rat. Particulars: versus untreated animals. The text has this:
In a further experiment, modified H-GLP-1 or H-GLP-1/mTf is used to normalize the high fasting glucose of the Zucker rats without glucose administration.

Series [4] relates to Zucker rats. Kind of series: Glucose Tolerance Test in Zucker rats. It counts as in vivo, rat. Particulars: fasted Zucker rats, subcutaneous injection 30 minutes before glucose 1.5 mg/g body weight; versus untreated animals. On the procedure:
In this Example, modified GLP-1/mTf of the present invention is used as a therapeutic agent to treat diabetes. Modified GLP-1/mTf is administered to Zucker rats, a standard animal model for type II diabetes. Zucker rats have abnormally high blood glucose levels. […] Zucker rats are fasted overnight and then treated with H-GLP-1 or H-GLP-1 fused to transferrin (H-GLP-1/mTf). Thirty minutes after subcutaneous injection of H-GLP-1 or H-GLP-1/mTf, the animals are subjected to a Glucose Tolerance Test (GTT). For this test, fasted animals are fed glucose solution (1.5 mg/g body weight), and the blood glucose is measured at appropriate time intervals.

The next series deals with T1, recombinant human DPP-IV (Homo sapiens, UniProt P27487).
T1 construct: purchased R&D Systems
T1 sequence (P27487 whole entry): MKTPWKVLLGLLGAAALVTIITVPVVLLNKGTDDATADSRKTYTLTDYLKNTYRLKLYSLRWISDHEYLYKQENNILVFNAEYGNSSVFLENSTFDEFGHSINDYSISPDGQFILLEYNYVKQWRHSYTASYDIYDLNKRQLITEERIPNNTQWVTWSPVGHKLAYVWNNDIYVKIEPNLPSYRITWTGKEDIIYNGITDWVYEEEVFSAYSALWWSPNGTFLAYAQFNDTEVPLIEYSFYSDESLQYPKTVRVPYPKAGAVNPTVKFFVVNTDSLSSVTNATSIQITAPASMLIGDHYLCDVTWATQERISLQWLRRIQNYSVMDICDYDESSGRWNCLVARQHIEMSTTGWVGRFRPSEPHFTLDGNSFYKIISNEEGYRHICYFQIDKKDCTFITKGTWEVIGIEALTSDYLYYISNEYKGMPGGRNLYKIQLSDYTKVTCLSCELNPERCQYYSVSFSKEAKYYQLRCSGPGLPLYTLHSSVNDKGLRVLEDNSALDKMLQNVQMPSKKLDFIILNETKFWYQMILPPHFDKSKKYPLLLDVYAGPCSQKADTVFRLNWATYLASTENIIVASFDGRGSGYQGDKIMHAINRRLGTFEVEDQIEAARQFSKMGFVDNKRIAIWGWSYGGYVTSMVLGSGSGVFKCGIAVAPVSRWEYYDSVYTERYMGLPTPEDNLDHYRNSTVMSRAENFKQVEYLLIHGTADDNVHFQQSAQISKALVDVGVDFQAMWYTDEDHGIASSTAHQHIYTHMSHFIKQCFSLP
Kind of series: Dipeptidylpeptidase-IV treatment of mTf fusion proteins, cyclic AMP stimulation assay in CHO-GLP1R cells. It counts as in vitro ADME. The conditions noted are these: 2 μM fusion protein, DPP-IV 1 μg/μL, room temperature 2 hours; cAMP in CHO-GLP1R cells. How it is done: Control reactions excluding DPP-IV were set-up in parallel for each fusion protein. The digests were incubated at room temperature for 2 hours, at which time the reactions were diluted 20-fold in Krebs-Ringer buffer (Biosource International) supplemented with 1 mM IBMX (Calbiochem).
Tissue culture plates (24-well) were seeded with CHO-GLP1R cells at a density of 1×10^5 cells per/well in RPMI/10% FBS medium one day prior to treatment. The next day the cells appeared uniformly distributed with an approximate confluency of 60-80 percent. One day after seeding the culture plates the cells were washed twice with Krebs-Ringer buffer (KRB) followed by incubation in KRB for 1 hr at 37° C. to lower the intracellular levels of cAMP. This was followed by incubation for 10 minutes in KRB/IBMX to inhibit intracellular enzymes that break down cAMP. Dilutions of each test compound were prepared in KRB/IBMX and triplicate wells of CHO-GLP1R cells were treated with 0.15 ml of test compound per well for exactly 50 minutes at 37° C. The treatment was halted by washing the cultures two times with ice-cold phosphate-buffered saline. […]

Where no end group is shown, it is not given here.

For “[Ser^8]GLP-1: GLP-1 analog in which the second N-terminal alanine is replaced with serine (Ritzel et al.) (HSEGTFTSDVSSYLEGQAAKEFIAWLVKGRG; Glucagon-like peptide 1(7-37); UniProt P01275 98-128, looked up, variant A8S)”, the insulinotropic action entry in series [1] is given as “did not impair the insulinotropic action”. In addition, the plasma stability entry in series [2] is listed as “increased plasma stability as compared to GLP-1”.
Turning to `CC[C@H](C)[C@H](NC(=O)[C@H](Cc1ccccc1)NC(=O)[C@H](CCC(=O)O)NC(=O)[C@H](CCCCN)NC(=O)[C@H](C)NC(=O)[C@H](C)NC(=O)[C@H](CCC(N)=O)NC(=O)CNC(=O)[C@H](CCC(=O)O)NC(=O)[C@H](CC(C)C)NC(=O)[C@H](Cc1ccc(O)cc1)NC(=O)[C@H](CO)NC(=O)[C@H](CO)NC(=O)[C@@H](NC(=O)[C@H](CC(=O)O)NC(=O)[C@H](CO)NC(=O)[C@@H](NC(=O)[C@H](Cc1ccccc1)NC(=O)[C@@H](NC(=O)CNC(=O)[C@H](CCC(=O)O)NC(=O)[C@H](C)NC(=O)[C@H](Cc1c[nH]cn1)NC(=O)[C@@H](N)Cc1c[nH]cn1)[C@@H](C)O)[C@@H](C)O)C(C)C)C(=O)N[C@@H](C)C(=O)N[C@@H](Cc1c[nH]c2ccccc12)C(=O)N[C@@H](CC(C)C)C(=O)N[C@H](C(=O)N[C@@H](CCCCN)C(=O)NCC(=O)N[C@@H](CCCNC(=N)N)C(=O)O)C(C)C` [H-GLP-1], in the series on Zucker rats [3], the “fasting blood glucose level” value is “significant drop”. Further, the “normalization of blood glucose level in Glucose Tolerance Test” value in the series with Zucker rats [4] is listed as “faster normalization of blood glucose level”.
In the case of “H-GLP-1/mTf: H-GLP-1(7-36) fused to modified transferrin (mTf), expressed in Saccharomyces from pREX0368 (HHAEGTFTSDVSSYLEGQAAKEFIAWLVKGR; also: fused to modified transferrin (mTf))”, in the series with Zucker rats [3], the “fasting blood glucose level” value is given as “significant drop”. Further, the “normalization of blood glucose level in Glucose Tolerance Test” value with Zucker rats [4] is “faster normalization of blood glucose level”. Moreover, in the series with recombinant human DPP-IV, the “resistance to DPP-IV” value is “more resistant to DPP-IV than GLP-1/mTf”.
